pIC50: −log10 of the molar value.
How the values were obtained:
[1] = tested on: pY705-STAT3 in Peripheral Blood Mononuclear Cells (PBMC); test: MSD-pSTAT-PBMC Assay (pSTAT3, IL-6 stimulated); format: cell-based, Human; details: compound 3 hrs, then 10 ng/mL IL-6 for 10 min
Outline: (§1)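 Human PBMCs were preincubated 3 h with compound, then stimulated 10 min with 10 ng/mL IL-6 (pY705-STAT3) or 1 ng/mL IL-4 (pY641-STAT6). Lysates were read by MSD sandwich immunoassay, capturing total STAT and detecting phospho-STAT. Signal was unstimulated-subtracted and DMSO-normalised, with variable-slope IC50 binned A–D.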

[2] = tested on: pY641-STAT6 in Peripheral Blood Mononuclear Cells (PBMC); test: MSD-pSTAT-PBMC Assay (pSTAT6, IL-4 stimulated); format: cell-based, Human; details: compound 3 hrs, then 1 ng/mL IL-4 for 10 min
Outline: as §1

Row | SMILES | pIC50 ([1]; Homo sapiens) | pIC50 ([2]; Homo sapiens) | pIC50 [1] | pIC50 [2]
1 | COC(=O)[C@@H]1CCCN1C(=O)OCOP(=O)(OCOC(=O)N1CCC[C@H]1C(=O)OC)C(F)(F)c1ccc2sc(C(=O)N[C@H]3CN(C(C)=O)CC[C@H]4CC[C@@H](C(=O)N(C)c5ccccc5)N4C3=O)cc2c1 [Compound 288, O′1,O1-(((((2-(((5S, 8S,10aR)-3-acetyl-8-(methyl (phenyl)carbamoyl)-6-oxodecahydro-pyrrolo[1,2-a][1,5]diazocin-5-yl)carbamoyl)benzo[b]thiophen-5-yl)difluoro-methyl)phos-phoryl)bis(oxy))bis (methylene)) 2,2′-dimethyl (2S,2′S)-bis (pyrrolidine-1,2-dicarboxylate)] | < 5.52 | < 5.52 | – | –
2 | CCCC(=O)SCCOP(=O)(OCCSC(=O)CCC)C(F)(F)c1ccc2ccc(C(=O)N[C@H]3CN(CC(F)F)CC[C@H]4CC[C@@H](C(=O)N(C)C5CCN(S(C)(=O)=O)CC5)N4C3=O)cc2c1 [Compound 347, S,S′-(((((7-(((5S,8S,10aR)-3-(2,2-difluoroethyl)-8-(methyl(1-(methylsulfonyl)piperidin-4-yl)carbamoyl)-6-oxodeca hydropyrrolo[1,2-a][1,5]diazocin-5-yl)carbamoyl)naphthalen-2-yl)difluoromethyl)phosphoryl)bis(oxy))bis(ethane-2,1-diyl))dibutanethioate] | 6.00 to 7.00 | 6.00 to 7.00 | – | –
3 | CC(=O)N1CC[C@H]2CC[C@@H](C(=O)N3C[C@H](O)[C@@H](n4ccnn4)C3)N2C(=O)[C@@H](NC(=O)c2ccc3ccc(C(F)(F)P(=O)(OCCSC(=O)CC(C)C)OCCSC(=O)CC(C)C)cc3c2)C1 [Compound 305, S,S′-(((((7-(((5S,8S, 10aR)-3-acetyl-8-((3S,4S)-3-hydroxy-4-(1H-1,2,3-triazol-1-yl)pyrrolidine-1-carbonyl)-6-oxodecahydro-pyrrolo[1,2-a][1,5]diazocin-5-yl)carbamoyl)naphthalen-2-yl)difluoro-methyl)phos-phoryl)bis(oxy))bis(ethane-2,1-diyl)) bis(3-methylbutane-thioate)] | 5.52 to 6.00 | < 5.52 | – | –
4 | CC(=O)N1CC[C@H]2CC[C@@H](C(=O)Nc3ccc(S(C)(=O)=O)cc3)N2C(=O)[C@@H](NC(=O)c2cc3cc(C(F)(F)P(=O)(OCOC(=O)C(C)(C)C)OCOC(=O)C(C)(C)C)ccc3s2)C1 [Compound 314, ((((2-(((5S, 8S,10aR)-3-acetyl-8-((4-(methyl-sulfonyl)phenyl)carbamoyl)-6-oxodecahydro-pyrrolo[1,2-a][1,5]diazocin-5-yl)carbamoyl)benzo[b]thiophen-5-yl)difluoro-methyl)phos-phoryl)bis(oxy))bis (methylene) bis(2,2-dimethylpro-panoate)] | 5.52 to 6.00 | 6.00 to 7.00 | – | –
5 | CC(=O)N1CC[C@H]2CC[C@@H](C(=O)Nc3ccc(-c4ccccc4)cc3)N2C(=O)[C@@H](NC(=O)c2cc3cc(C(F)(F)P(=O)(OCOC(=O)C(C)(C)C)OCOC(=O)C(C)(C)C)ccc3[nH]2)C1 [Compound 308, ((((2-(((5S, 8S,10aR)-8-([1,1′-biphenyl]-4-ylcarbamoyl)-3-acetyl-6-oxodecahydro-pyrrolo[1,2-a][1,5]diazocin-5-yl)carbamoyl)-1H-indol-5-yl)difluoro-methyl)phos-phoryl)bis(oxy)) bis(methylene) bis(2,2-dimethylpro-panoate)] | 6.00 to 7.00 | 6.00 to 7.00 | – | –
6 | CNC(=O)[C@@H]1CC[C@@H]2CCN(C(=O)c3n[nH]c4ccc(C)cc34)C[C@H](NC(=O)c3ccc4ccc(C(F)(F)P(=O)(OCCSC(=O)CC(C)C)OCCSC(=O)CC(C)C)cc4c3)C(=O)N21 [Compound 329, S,S′-((((difluoro(7-(((5S,8S,10aR)-3-(5-methyl-1H-indazole-3-carbonyl)-8-(methylcarbamoyl)-6-oxodecahydropyrrolo[1,2-a][1,5]diazocin-5-yl)carbamoyl)naphthalen-2-yl)methyl)phosphoryl)bis(oxy))bis(ethane-2,1-diyl)) bis(3-methylbutanethioate)] | 5.52 to 6.00 | ≥ 7.00 | – | –
7 | CCCOC(=O)OCOP(=O)(OCOC(=O)OCCC)C(F)(F)c1ccc2sc(C(=O)N[C@H]3CN(C(C)=O)CC[C@H]4CC[C@@H](C(=O)N(C)c5ccccc5)N4C3=O)cc2c1 [Compound 286, ((((2-(((5S, 8S,10aR)-3-acetyl-8-(methyl (phenyl)carbamoyl)-6-oxodecahydro-pyrrolo[1,2-a][1,5]diazocin-5-yl)carbamoyl)benzo[b]thiophen-5-yl)difluoro-methyl)phosphoryl)bis(oxy)) bis(methylene) dipropyl bis(carbonate)] | 6.00 to 7.00 | 6.00 to 7.00 | – | –
8 | CC(=O)N1CC[C@H]2CC[C@@H](C(=O)Nc3ccc(-c4ccccc4)cc3)N2C(=O)[C@@H](NC(=O)/C=C/c2ccc(C(F)(F)P(=O)(OCCSC(=O)CC(C)C)OCCSC(=O)CC(C)C)cc2)C1 [Compound 325, S,S′-(((((4-((E)-3-(((5S,8S, 10aR)-8-([1,1′-biphenyl]-4-ylcarbamoyl)-3-acetyl-6-oxodecahydro-pyrrolo[1,2-a][1,5]diazocin-5-yl)amino)-3-oxoprop-1-en-1-yl)phenyl)difluoro-methyl)phosphoryl)bis(oxy))bis (ethane-2,1-diyl)) bis(3-methylbutane-thioate)] | < 5.52 | < 5.52 | – | –
9 | CC(=O)N1CC[C@H]2CC[C@@H](C(=O)N(C)c3ccccc3)N2C(=O)[C@@H](NC(=O)/C=C/c2ccc(C(F)(F)P(=O)(OCOC(=O)C(C)(C)C)OCOC(=O)C(C)(C)C)cc2)C1 [Compound 315, ((((4-((E)-3-(((5S,8S, 10aR)-3-acetyl-8-(methyl (phenyl)carbamoyl)-6-oxodecahydro-pyrrolo[1,2-a][1,5]diazocin-5-yl)amino)-3-oxoprop-1-en-1-yl)phenyl)difluoro-methyl)phosphoryl)bis(oxy))bis (methylene) bis(2,2-dimethylpro-panoate)] | < 5.52 | 6.00 to 7.00 | – | –
10 | CC(=O)N1CC[C@H]2CC[C@@H](C(=O)N(C)c3ccccc3)N2C(=O)[C@@H](NC(=O)c2cc3cc(C(F)(F)P(=O)(OCOC(=O)C(C)(C)C)OCOC(=O)C(C)(C)C)ccc3[nH]2)C1 [Compound 300, ((((2-(((5S, 8S,10aR)-3-acetyl-8-(methyl (phenyl)carbamoyl)-6-oxodecahydro-pyrrolo[1,2-a][1,5]diazocin-5-yl)carbamoyl)-1H-indol-5-yl)difluoro-methyl)phos-phoryl)bis(oxy)) bis(methylene) bis(2,2-dimethylpro-panoate)] | 6.00 to 7.00 | 6.00 to 7.00 | – | –
11 | CC(C)(C)C(=O)OCOP(=O)(OCOC(=O)C(C)(C)C)C(F)(F)c1ccc2sc(C(=O)N[C@H]3CN(CC(F)F)CC[C@H]4CC[C@@H](C(=O)N5CC(C(=O)N6CCOCC6)C5)N4C3=O)cc2c1 [Compound 351, ((((2-(((5S,8S,10aR)-3-(2,2-difluoroethyl)-8-(3-(morpholine-4-carbonyl)azetidine-1-carbonyl)-6-oxodecahydropyrrolo[1,2-a][1,5]diazocin-5-yl)carbamoyl)benzo[b]thiophen-5-yl)difluoromethyl)phosphoryl)bis (oxy))bis(methylene) bis(2,2-dimethylpropanoate)] | – | – | ≥ 7.00 | 5.52 to 6.00
